Results from article PMC11124822, “Discovery and Anticancer Screening of Novel Oxindole-Based Derivative Bearing Pyridyl Group as Potent and Selective Dual FLT3/CDK2 Kinase Inhibitor” (Pharmaceuticals, 2024).

Tests used:
MV4-11 cell xenografts = test system: MV4-11 cell xenografts; parameters: method as in PMID 29357250; conditions: cited from earlier work
FLT3 = target: T1, FLT3 (Homo sapiens, UniProt P36888); test: Z'-LYTE kinase assay; format: biochemical; conditions: three separate experiments ± SD
T1 construct: purchased Invitrogen/Life Technologies
T1 sequence (P36888 27-993): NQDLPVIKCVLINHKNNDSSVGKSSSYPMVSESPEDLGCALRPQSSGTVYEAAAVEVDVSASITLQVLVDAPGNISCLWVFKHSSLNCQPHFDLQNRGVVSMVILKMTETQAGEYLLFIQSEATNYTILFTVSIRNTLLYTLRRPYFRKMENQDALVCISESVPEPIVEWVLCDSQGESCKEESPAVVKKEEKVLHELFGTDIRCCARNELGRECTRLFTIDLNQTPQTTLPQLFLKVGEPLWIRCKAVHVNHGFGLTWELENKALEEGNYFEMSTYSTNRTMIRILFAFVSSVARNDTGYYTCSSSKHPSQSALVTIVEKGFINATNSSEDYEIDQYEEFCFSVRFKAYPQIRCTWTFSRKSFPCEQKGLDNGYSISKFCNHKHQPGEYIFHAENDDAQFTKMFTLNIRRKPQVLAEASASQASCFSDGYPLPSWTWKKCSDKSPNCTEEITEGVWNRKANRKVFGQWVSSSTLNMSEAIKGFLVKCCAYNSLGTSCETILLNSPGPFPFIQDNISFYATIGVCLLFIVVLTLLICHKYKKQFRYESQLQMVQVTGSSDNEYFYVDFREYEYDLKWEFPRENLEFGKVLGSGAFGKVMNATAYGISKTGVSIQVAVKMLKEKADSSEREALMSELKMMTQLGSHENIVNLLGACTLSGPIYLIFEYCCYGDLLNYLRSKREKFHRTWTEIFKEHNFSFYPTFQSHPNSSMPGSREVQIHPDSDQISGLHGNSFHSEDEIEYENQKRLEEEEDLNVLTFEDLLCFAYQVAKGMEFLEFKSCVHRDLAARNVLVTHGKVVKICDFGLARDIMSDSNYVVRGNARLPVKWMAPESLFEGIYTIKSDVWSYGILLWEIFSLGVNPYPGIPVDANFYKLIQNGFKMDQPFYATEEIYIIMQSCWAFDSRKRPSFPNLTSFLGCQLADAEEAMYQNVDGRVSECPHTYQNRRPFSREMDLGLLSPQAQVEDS
Description: (§1) The Z’-LYTE® technology, which relies on FRET (Fluorescence Resonance Energy Transfer) from Invitrogen/Life Technologies, was employed for this evaluation for all kinases except VEGFR-2. The VEGFR-2 kinase assay was conducted in a 96-well streptavidin-coated plate using a recombinant human VEGFR-2/KDR ELISA kit, following the manufacturer’s instructions. […] Statistical significance was assessed using one-way analysis of variance (ANOVA), followed by the Dunnett test; data are represented as means ± SD.

CDK2 = target: T2, CDK2 (Homo sapiens, UniProt P24941); test: Z'-LYTE kinase assay; format: biochemical; conditions: three separate experiments ± SD
T2 construct: purchased Invitrogen/Life Technologies
Description: as §1

CDK4 = test system: CDK4; parameters: method as in PMID 29357250; conditions: cited from earlier work
CDK6 = test system: CDK6; parameters: method as in PMID 29357250; conditions: cited from earlier work
FLT3 kinase = target: FLT3 kinase; parameters: method as in PMID 36403191, PMID 37446914; conditions: cited from earlier work
[1] = test system: FLT3 ITD-mutated MV4-11 AML cells; parameters: method as in PMID 36403191, PMID 37446914; conditions: after 72 h; cited from earlier work
[2] = test system: MCF-7 breast cancer cell line; parameters: method as in PMID 36844536; conditions: cited from earlier work
[3] = test system: MCF-12A normal breast cell line; parameters: method as in PMID 36844536; conditions: cited from earlier work

Q: With `CN1CCN(Cc2ccc(NC(=O)c3n[nH]cc3Nc3ncnc4[nH]ccc34)cc2)CC1` [FN-1501, 4-((7H-Pyrrolo[2,3-d]pyrimidin-4-yl)amino)-N-(4-((4-methylpiperazin-1-yl)methyl)phenyl)-1H-pyrazole-3-carboxamide] as the compound, how does the “effectiveness in treating leukemia in mouse models” value (MV4-11 cell xenografts) read?
A: remarkable effectiveness

Q: What about the IC50 (FLT3) of the same compound?
A: 0.79 ± 0.08 nM

Q: What about the IC50 (CDK2) of the same compound?
A: 1.99 ± 0.12 nM

Q: What about the IC50 (CDK4) of the same compound?
A: 0.85 nM

Q: And the IC50 (CDK6)?
A: 1.96 nM

Q: For `COc1cc(C=C2C(=O)Nc3ccccc32)ccc1O` [III], which IC50 (FLT3 kinase) is on record?
A: 2490 nM

Q: What about the IC50 [1] of the same compound?
A: 4300 nM

Q: For `COc1cc(C=C2C(=O)Nc3ccc(Cl)cc32)ccc1OCc1ccccn1` [IV], which IC50 [2] is on record?
A: 17000 nM

Q: And the “impact on the MCF-12A normal breast cell line” value [3]?
A: no impact
